Source: patent US20200008421A1, “ADJUVANTS” (SYNGENTA PARTICIPATIONS AG, priority 2016, published 2020)

How the values were obtained:
Format in all cases: in vivo
[1] = system: Polygonum convolvulus (POLCO), Brachiaria plantaginea (BRAPL), Commelina benghalensis (COMBE), Digitaria sanguinalis (DIGSA); assay: Glasshouse herbicide efficacy of mesotrione with adjuvants (Example 2); conditions: mesotrione SC, mean over 30 and 60 g/ha, three replicates, four weed species; 21 days after application; adjuvants 0.2% v/v, Tween 20 0.5% v/v; 200 l/ha
Experimental: (§1) Mesotrione was added to the spray tank as a standard SC (suspension concentrate) formulation.
The four weed species were Polygonum convolvulus (POLCO; growth stage 13-15), Brachiaria plantaginea (BRAPL; growth stage 13-21), Commelina benghalensis (COMBE; growth stage 12-13) and Digitaria sanguinalis (DIGSA; growth stage 13-14).
Each spray test was replicated three times. […] The results shown in Table 2 below are mean averages over the two rates of mesotrione, the three replicates and the four weed species.

[2] = system: Polygonum convolvulus (POLCO), Brachiaria plantaginea (BRAPL), Commelina benghalensis (COMBE), Digitaria sanguinalis (DIGSA); assay: Glasshouse herbicide efficacy of mesotrione with adjuvants (Example 9); conditions: mesotrione SC, mean over 30 and 60 g/ha, three replicates, four weed species; 21 days after application; adjuvants 0.2% v/v, Tween 20 0.5% v/v; 200 l/ha
Experimental: The efficacy of Adjuvant 5 as an adjuvant for the herbicide mesotrione was tested in a glasshouse against four weed species. Mesotrione was added to the spray tank as a standard SC (suspension concentrate) formulation.
(§2) The spray tests were also carried out using mesotrione in conjunction with Adjuvant 5, Adjuvant 6 or the well-known adjuvant Tween® 20. […] The four weed species were Polygonum convolvulus (POLCO), Brachiaria plantaginea (BRAPL), Commelina benghalensis (COMBE) and Digitaria sanguinalis (DIGSA).
Each spray test was replicated three times. […] The results shown in Table 9 below are mean averages over the two rates of mesotrione, the three replicates and the four weed species.

[3] = system: Polygonum convolvulus (POLCO), Brachiaria plantaginea (BRAPL), Commelina benghalensis (COMBE), Digitaria sanguinalis (DIGSA); assay: Glasshouse herbicide efficacy of mesotrione with adjuvants (Example 6); conditions: mesotrione SC, mean over 30 and 60 g/ha, three replicates, four weed species; 21 days after application; Adjuvant 2 0.2% v/v, Tween 20 0.5% v/v; 200 l/ha
Experimental: as §1
as §2, with “2” for “5, Adjuvant 6”, “(DIGSA). Each spray test was replicated three times. […] The results shown in Table 6 below are mean averages over the two rates of mesotrione, the three replicates and the four weed species.” for “(DIGSA).”

[4] = system: Abutilon theophrasti (ABUTH), Chenopodium album (CHEAL), Digitaria sanguinalis (DIGSA), Setaria viridis (SETVI); assay: Glasshouse herbicide efficacy of nicosulfuron with adjuvants (Example 1); conditions: nicosulfuron WG, mean over 30 and 60 g/ha, three replicates, four weed species; 21 days after application; adjuvants 0.2% v/v, Atplus 411F 0.5% v/v; 200 l/ha
Experimental: (§3) Nicosulfuron was added to the spray tank as a standard WG (water dispersible granule) formulation.
Each spray test was replicated three times. […] The results shown in Table 1 below are mean averages over the two rates of nicosulfuron, the three replicates and the four weed species.

[5] = system: Abutilon theophrasti (ABUTH), Chenopodium album (CHEAL), Digitaria sanguinalis (DIGSA), Setaria viridis (SETVI); assay: Glasshouse herbicide efficacy of nicosulfuron with adjuvants (Example 5); conditions: nicosulfuron WG, mean over 30 and 60 g/ha, three replicates, four weed species; 21 days after application; Adjuvant 2 0.2% v/v, Atplus 411F 0.5% v/v; 200 l/ha
Experimental: as §3
The spray tests were also carried out using nicosulfuron in conjunction with Adjuvant 2 or the commercially available tank-mix adjuvant, Atplus 411F®. […] The weed species were Abutilon theophrasti (ABUTH), Chenopodium album (CHEAL), Digitaria sanguinalis (DIGSA) and Setaria viridis (SETVI).
Each spray test was replicated three times. […] The results shown in Table 5 below are mean averages over the two rates of nicosulfuron, the three replicates and the four weed species.

[6] = system: Alopecurus myosuroides (ALOMY), Avena fatua (AVEFA), Lolium perenne (LOLPE), Setaria viridis (SETVI); assay: Glasshouse herbicide efficacy of pinoxaden with adjuvants (Example 7); conditions: pinoxaden EC, mean over 7.5 and 15 g/ha, three replicates, four weed species; 21 days after application; adjuvants 0.2% v/v; 200 l/ha
Experimental: (§4) Pinoxaden was added to the spray tank as a standard EC (emulsifiable concentrate) formulation.
The spray tests were also carried out using pinoxaden in conjunction with Adjuvant 2 or the standard adjuvant tris(2-ethylhexyl) phosphate. […] The weed species were Alopecurus myosuroides (ALOMY), Avena fatua (AVEFA); Lolium perenne (LOLPE) and Setaria viridis (SETVI).
Each spray test was replicated three times. […] The results shown in Table 7 below are mean averages over the two rates of pinoxaden, the three replicates and the four weed species.

[7] = system: Alopecurus myosuroides (ALOMY), Avena fatua (AVEFA), Lolium perenne (LOLPE), Setaria viridis (SETVI); assay: Glasshouse herbicide efficacy of pinoxaden with adjuvants (Example 3); conditions: pinoxaden EC, mean over 7.5 and 15 g/ha, three replicates, four weed species; 21 days after application; adjuvants 0.2% v/v; 200 l/ha
Experimental: as §4
Each spray test was replicated three times. […] The results shown in Table 3 below are mean averages over the two rates of pinoxaden, the three replicates and the four weed species.

[8] = system: Alopecurus myosuroides (ALOMY), Avena fatua (AVEFA), Lolium perenne (LOLPE), Setaria viridis (SETVI); assay: Glasshouse herbicide efficacy of pinoxaden with adjuvants (Example 10); conditions: pinoxaden EC, mean over 7.5 and 15 g/ha, three replicates, four weed species; 21 days after application; adjuvants 0.2% v/v; 200 l/ha
Experimental: The efficacy of Adjuvant 5 as an adjuvant for the herbicide pinoxaden was tested in a glasshouse against four weed species. Pinoxaden was added to the spray tank as a standard EC (emulsifiable concentrate) formulation.
The spray tests were also carried out using pinoxaden in conjunction with Adjuvant 5, Adjuvant 6 or the standard adjuvant tris(2-ethylhexyl) phosphate. […] The weed species were Alopecurus myosuroides (ALOMY), Avena fatua (AVEFA), Lolium perenne (LOLPE) and Setaria viridis (SETVI). Each spray test was replicated three times. […] The results shown in Table 10 below are mean averages over the two rates of pinoxaden, the three replicates and the four weed species.

CS(=O)(=O)c1ccc(C(=O)C2C(=O)CCCC2=O)c([N+](=O)[O-])c1 [Mesotrione, mesotrione]
Mean across species % phytotoxicity (mean percentage kill, leaf area killed) [1]: 25.6%
Mean across species % phytotoxicity (mean percentage kill, leaf area killed) [2]: 27.5%
Mean across species % phytotoxicity (mean percentage kill, leaf area killed) [3]: 17.8%

COc1cc(OC)nc(NC(=O)NS(=O)(=O)c2ncccc2C(=O)N(C)C)n1 [Nicosulfuron, nicosulfuron]
Mean across species % phytotoxicity (mean percentage kill, leaf area killed) [4]: 34.4%
Mean across species % phytotoxicity (mean percentage kill, leaf area killed) [5]: 64.5%

CCc1cc(C)cc(CC)c1-c1c(OC(=O)C(C)(C)C)n2n(c1=O)CCOCC2 [Pinoxaden, pinoxaden]
Mean across species % phytotoxicity (mean percentage kill, leaf area killed) [6]: 3.4%
Mean across species % phytotoxicity (mean percentage kill, leaf area killed) [7]: 3.6%
Mean across species % phytotoxicity (mean percentage kill, leaf area killed) [8]: 7.5%
